This note sets out measurements from patent US20240091303A1, “BIOMARKER-BASED TREATMENT OF FOCAL SEGMENTAL GLOMERULOSCLEROSIS AND DIABETIC KIDNEY DISEASE” (Goldfinch Bio, Inc., priority 2019, published 2024).

Data set [1] relates to Rac1 protein in the urine. As to the kind of experiment: Urinary Rac1 analysis in naive rats following treatment with Compound 1. To be noted: 10 mg/kg oral gavage once daily for 7 days. It is filed as in vivo, Sprague Dawley rats. The procedure: The aim of this study was to measure the amount of Rac1 protein in the urine of healthy rats treated with Compound 1.
Six to seven weeks old Sprague Dawley rats were placed in metabolic cage housing for urine collection. Following two 24-hour periods of pre-dose urine collection, received one daily dose of Compound 1 administered by oral gavage at 10 mg/kg for 7 days; control animals were administered vehicle. Urine was collected for 24-hour periods beginning on the day of dosing inception and on days 3 and 6 of dosing.
Urine samples were concentrated as follows: 20 mL of urine was spun at 1500×g for 5 min to remove cell debris. Samples were concentrated using a Pierce protein concentrator with 10 kDa MWCO (Cat# 88516, Thermo Scientific, USA) and spun at 6000×g for 30 min at 4° C. using rotor JA 14.50 (Beckman Coulter, USA) in an AVANTI-JE centrifuge, (Beckman Coulter). A second centrifugation at 6000×g for 30 min at 4° C. was performed for samples that were concentrated to a volume that was >1 mL, to achieve a volume of <1 mL for all samples. The concentrated urine was collected and stored in −80° C. Next, the samples were analyzed for urinary Rac1 by ELISA (Cat# abx253084, Abbexa Ltd, UK) and urinary creatinine by ELISA (Cat# ab65340, Abcam, USA) following standard procedures according to the manufacturer's instructions. […]

The test system of data set [2] is Rac1 protein in the urine. As to the kind of experiment: Urinary Rac1 analysis in healthy human subjects following treatment with Compound 1 (Phase 1, NCT03970122). The format is in vivo. On the procedure:
The aim of this study was to measure the amount of Rac1 protein in the urine of healthy human subjects treated with Compound 1.
Healthy human subjects enrolled in a Phase 1 clinical study, “A First-In-Human, Phase 1, Placebo-Controlled Study to Evaluate the Safety, Tolerability, and Pharmacokinetics of Compound 1, a TRPC5 Channel Inhibitor, in Healthy Subjects and Subjects With Renal Impairment,” (NCT03970122) were administered a single, oral dose of either a placebo or 20 mg Compound 1 as a tablet. A urine sample was collected prior to administration of drug, and urine pools were then collected from 0-4 hours, 4-8 hours, 8-12 hours, 12-24 hours, 24-48 hours and 48-72 hours after dosing.
For Rac1 analysis, urine samples were concentrated as follows: 20 mL of urine was spun at 1500×g for 5 min to remove cell debris. Samples were concentrated using a Pierce protein concentrator with 10 kDa MWCO (Cat# 88516, Thermo Scientific, USA) and spun at 6000×g for 30 min at 4° C. using rotor JA 14.50 (Beckman Coulter, USA) in an AVANTI-JE centrifuge, (Beckman Coulter). A second centrifugation at 6000×g for 30 min at 4° C. was performed for samples that were concentrated to a volume that was >1 mL, to achieve a volume of <1 mL for all samples. The concentrated urine was collected and stored in −80° C. Next, the samples were analyzed for urinary Rac1 by ELISA (Cat# abx253084, Abbexa Ltd, UK) and urinary creatinine by ELISA (Cat# ab65340, Abcam, USA) following standard procedures according to the manufacturer's instructions. The amount of Rac1 in the urine was normalized to the amount of creatinine in the urine to control for the volume of urine produced.
Additional data was obtained from human subjects that were administered a single, oral dose of either a placebo, 5 mg of Compound 1 as a liquid suspension or 20, 40 or 80 mg of Compound 1 as tablets. A urine sample was collected prior to administration of drug, and urine pools were then collected from 0-4 hours, 4-8 hours, 8-12 hours, 12-24 hours, and for each 24 hour period from day 2 through day 7 after dosing. Each dose level comprised 2 placebo and 8 treated subjects.

Another data set relates to COL4A4 knockout mice. As to the kind of experiment: Effects of Compound 1 in COL4A4 knockout mice (Alport model). The format is in vivo, mouse. To be noted: 3 mg/kg or 10 mg/kg oral gavage once daily for 4 weeks, FIG. 8. From the text:
The aim of this study was to evaluate the effects of the TRCPS inhibitor, Compound 1, to attenuate the development and/or progression of albuminuria in […] knockout mice.
The COL4A4 knockout mouse model is a well-established model of Alport disease, characterized by increased levels of urinary protein and albumin excretion. [Korstanje et al., “A mouse Col4a4 mutation causing Alport glomerulosclerosis with abnormal collagen α3α4α5(IV) trimers,” Kidney Int. (2014) 85:1461-1468].
Four to five weeks old COL4A4 knockout mice were received one daily dose of Compound 1 administered by oral gavage at 3 mg/kg or 10 mg/kg for 4 weeks; control animals were administered vehicle. Body weight was recorded daily and urinary protein and creatinine were recorded every week, and the ratio of urine protein to creatinine (UPCR) was calculated.

In data set [3] the test system is DOCA-salt hypertensive rats. As to the kind of experiment: Effects of Compound 1 in DOCA-salt hypertensive rats (albuminuria). The format is in vivo, Sprague Dawley rats. To be noted: for urinary albumin excretion: week 2 to week 4, FIG. 7. The source says:
The aim of this study was to evaluate the effects of the TRCPS inhibitor, Compound 1, to attenuate the development and/or progression of albuminuria in deoxycorticosterone acetate (DOCA)-salt hypertensive rats.
(§1) The DOCA-salt hypertensive rat model is a well-established model of mineralocorticoid hypertension with renal dysfunction leading to an FSGS phenotype, characterized by increased levels of urinary protein and albumin excretion. [Schenk et al., “The pathogenesis of DOCA-salt hypertension,” J. Pharmacol. Toxicol. Methods (May 1992) 27 (3):161-170; Gomez-Sanchez et al., “Mineralocorticoids, salt and high blood pressure,” Steroids (1996) 61:184-188.]
Six to seven weeks old Sprague Dawley rats were unilaterally nephrectomized; after one-week recovery, rats were implanted with a DOCA pellet (45 mg) and provided tap water containing 0.9% NaCl and 0.2% KCl (Day 1) for a 4 weeks treatment. On Day 1, DOCA-salt rats received one daily dose of Compound 1 administered by oral gavage at 3 mg/kg or 10 mg/kg for 4 weeks; control animals for DOCA treatment were administered vehicle. Sham animals, implanted with a silicone-water pellet, were given tap water and received oral administration of the vehicle. Body weight was recorded daily and proteinuria, albuminuria and arterial blood pressure were recorded every week.

The subject of another data set is ZDSD rats. As to the kind of experiment: ZDSD model of diabetic nephropathy, albuminuria. The format is in vivo, rat. From the text: The aim of this study was to evaluate the effects of the TRCPS inhibitor, Compound 1, to attenuate the development and/or progression of albuminuria in ZDSD model of diabetic nephropathy (DN).
The ZDSD model is an established model which recapitulates the major features of diabetes including impaired glucose metabolism, neuropathy, retinopathy and nephropathy [Peterson et al., “Characterization of the ZDSD Rat: A Translational Model for the Study of Metabolic Syndrome and Type 2 Diabetes,” J. Diabetes. Res. (2015), Article ID 487816, 10 pages; Peterson et aL, “The ZDSD rat: a novel model of diabetic nephropathy,” Am. J. Transl. Res. (2017) 9: 4236-4249].
Male ZDSD rats (Crown Bioscience, Indianapolis, IN., n=79) were maintained on standard rodent chow (Purina 5008) from weaning to 15 weeks of age. A diabetogenic diet (Research Diet D124668) was initiated and maintained for three weeks to synchronize development of hyperglycemia. Diabetogenic diet was replaced with Purina 5008 for remainder of the study. Animals were housed two per cage and maintained on a 12 hour light cycle (0600-1800). Room temperature was monitored daily and maintained at 70-74° F. Food and water were provided ad libitum for duration of the study. […]
Body weight was recorded weekly. Food consumption was recorded weekly during the treatment phase from week 0 through 12. […]

In data set [4] the test system is Rac1 protein in the urine. Description: Urinary Rac1 analysis in DOCA-salt hypertensive rats following treatment with Compound 1. The format is in vivo, Sprague Dawley rats.
From the text: The aim of this study was to measure the amount of Rac1 protein in the urine of DOCA-salt hypertensive rats treated with Compound 1.
as §1
Six to seven weeks old Sprague Dawley rats were unilaterally nephrectomized. After one-week recovery, rats were implanted with a DOCA pellet (45 mg) and provided tap water containing 0.9% NaCl and 0.2% KCl (Day 1) for a 4 weeks treatment. […] Body weight was recorded daily throughout the study. […] Urine was collected for 24-hour periods beginning on day 17, day 20, day 24 and day 27, and urine protein and albumin were measured using standard methods.
For Rac1 analysis, urine samples were concentrated as follows: 20 mL of urine was spun at 1500×g for 5 min to remove cell debris. […] Next, the samples were analyzed for urinary Rac1 by ELISA (Cat# abx253084, Abbexa Ltd, UK) and urinary creatinine by ELISA (Cat# ab65340, Abcam, USA) following standard procedures according to the manufacturer's instructions. […]

The subject of data set [5] is DOCA-salt hypertensive rats. As to the kind of experiment: Effects of Compound 3 in DOCA-salt hypertensive rats (albuminuria), eplerenone control. It is filed as in vivo, Sprague Dawley rats.
Protocol: The aim of this study was to evaluate the effects of the TRCPS inhibitor, Compound 3, to attenuate the development and/or progression of albuminuria in deoxycorticosterone acetate (DOCA)-salt hypertensive rats.
Six to seven weeks old Sprague Dawley rats were unilaterally nephrectomized; after one-week recovery, rats were implanted with a DOCA pellet (45 mg) and provided tap water containing 0.9% NaCl and 0.2% KCl (Day 1) for a 4 weeks treatment. On Day 1, DOCA-salt rats received one daily dose of Compound 3 administered by oral gavage at 30 mg/kg for 4 weeks; control animals for DOCA treatment were administered vehicle or the mineralocorticoid receptor antagonist (MCRA) eplerenone by twice-daily oral gavage at 50 mg/kg. Sham animals, implanted with a silicone-water pellet, were given tap water and received SC administration of the vehicle. Body weight was recorded daily and proteinuria, albuminuria and arterial blood pressure were recorded every week.
In data set [6] the test system is DOCA-salt hypertensive rats. Description: Effects of cyclosporine A and tacrolimus in DOCA-salt hypertensive rats (albuminuria). It is filed as in vivo, Sprague Dawley rats. Also noted: urinary albumin excretion: dose or concentration left out as unconfirmed. On the procedure: The DOCA-salt hypertensive rat model is a well-established model of mineralocorticoid hypertension with renal dysfunction leading to an FSGS phenotype, characterized by increased levels of urinary protein and albumin excretion. [Schenk et al., “The pathogenesis of DOCA-salt hypertension,” J. Pharmacol. Toxicol.
Six to seven weeks old Sprague Dawley rats were unilaterally nephrectomized; after one-week recovery, rats were implanted with a DOCA pellet (45 mg) and provided tap water containing 0.9% NaCl and 0.2% KCl (Day 1) for a 3 weeks treatment. […] Sham animals, implanted with a silicone-water pellet, were given tap water and received administration of the vehicle. Proteinuria and albuminuria were recorded every week, and body weight was recorded daily.

Turning to `O=c1[nH]ncc(N2CCc3c(ncnc3Oc3ccc(F)cc3C(F)(F)F)C2)c1Cl` [Compound 1], the adverse effects result in data set [1] is on record as “No adverse effects were observed”; in data set [3] (DOCA-salt rats, 3 or 10 mg/kg oral gavage once daily for 4 weeks), “No adverse effects were observed”; in data set [4] (10 mg/kg oral gavage once daily for 7 days from day 21), “No adverse effects were observed”. The “urinary Rac1 levels (Rac1 normalized to creatinine)” value in data set [1] (vs pre-dose levels, significance at day 4 (p<0.01), FIG. 2) is “reduced urinary Rac1 levels”; in data set [2] (healthy humans, single oral 20 mg tablet, vs pre-dose, significance by 8-12 hours after dosing (p<0.05), FIG. 4), “reduced urinary Rac1 levels”; in data set [4] (10 mg/kg oral gavage once daily for 7 days from day 21, vs pre-dose levels, significance day 25 (p<0.01), FIG. 3), “reduced urinary Rac1 levels”. The “time urinary Rac1 levels remained reduced” value is “up to 4 days” in data set [2] (humans, single 40 mg oral dose) and “at least 7 days” in data set [2] (humans, single 80 mg oral dose). Also, the “urinary Rac1 levels” value in data set [2] (humans, single oral dose 5 mg suspension or 20, 40, 80 mg tablets, significance by 8-12 hours with 40 mg and 80 mg doses vs pre-dose (p<0.05), FIG. 4B) is listed as “reduced urinary Rac1 levels”. The “urinary protein to creatinine ratio (UPCR)” value with COL4A4 knockout mice was “no effect”. The urinary albumin excretion result in data set [3] (3 mg/kg oral daily, significant at week 3 vs DOCA-vehicle (p<0.05)) was “attenuated urinary albumin excretion”; in data set [3] (10 mg/kg oral daily, vs DOCA-vehicle, p<0.05 week 2, p<0.001 weeks 3 and 4) it was “attenuated urinary albumin excretion”; in the data set with ZDSD rats (3 or 10 mg/kg/d oral gavage 12 weeks, week 6 to week 12, significance at weeks 10 to 12 vs vehicle (p<0.001), FIG. 6) it was “attenuated urinary albumin excretion”. Further, the body weight entry in data set [3] (DOCA vs DOCA and Compound 1, 3 or 10 mg/kg oral daily 4 weeks) was “no significant difference”; with ZDSD rats (3 mg/kg and 10 mg/kg oral gavage daily for 12 weeks, vs vehicle group, last two weeks of study), “increase in body weight”.

`COC(=O)[C@@H]1CC2=CC(=O)CC[C@]2(C)[C@@]23O[C@@H]2C[C@@]2(C)[C@@H](CC[C@@]24CCC(=O)O4)[C@H]13` [eplerenone]: the body weight result in data set [5] (DOCA vs DOCA plus Compound 3 (30 mg/kg oral daily) or eplerenone (50 mg/kg oral twice daily)) was “no significant difference”. Also, the urinary albumin excretion result in data set [5] (eplerenone 50 mg/kg twice-daily oral gavage, week 4 vs DOCA-vehicle (p<0.05), FIG. 10) is “significantly attenuated urinary albumin excretion”.

Regarding `C=CC[C@@H]1/C=C(\C)C[C@H](C)C[C@H](OC)[C@H]2O[C@@](O)(C(=O)C(=O)N3CCCC[C@H]3C(=O)O[C@H](/C(C)=C/[C@@H]3CC[C@@H](O)[C@H](OC)C3)[C@H](C)[C@@H](O)CC1=O)[C@H](C)C[C@@H]2OC` [tacrolimus, Tacrolimus], in data set [6] (DOCA and tacrolimus 0.3 mg/kg oral gavage daily, first two weeks), the body weight entry is “significant loss of body weight”. Besides, in data set [6] (tacrolimus 0.3/0.1 oral daily, weeks 2 and 3 vs DOCA-vehicle (p<0.05), FIG. 12), the urinary albumin excretion result is “significantly attenuated urinary albumin excretion”. The “body weight after dose adjustment” value in data set [6] (tacrolimus dose adjusted from 0.3 mg/kg down to 0.1 mg/kg after two weeks of dosing) is reported as “reversed the weight loss”.
